In PubChem BioAssay (NCI):
“And” between values parts separate entries of the source, which are not always exact repeats. Identical values can stand only once.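 Assay format: 96-well plates, 48-hour exposure. GI50 marks 50% less growth. TGI denotes the concentration required for complete inhibition of growth.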

What was measured:
Assay in all cases: NCI-60 cell line screen, 48 h
[1] = test system: HOP-62 NSCLC
[2] = test system: COLO 205 colon
[3] = test system: SK-MEL-2 melanoma
[4] = test system: HCC-2998 colon
[5] = test system: SK-MEL-28 melanoma
[6] = test system: NCI-H226 lung
[7] = test system: HL-60(TB) leukemia
[8] = test system: NCI-H23 lung

SMILES	GI50 [1]	TGI [1]	GI50 [2]	TGI [2]	GI50 [3]	TGI [3]	GI50 [4]	TGI [4]	GI50 [5]	TGI [5]	GI50 [6]	TGI [6]	GI50 [7]	TGI [7]	GI50 [8]	TGI [8]
C=C1CCC2C3(C)COC(c4ccc(NC(C)=O)cc4)OC3CCC2(C)C1C/C=C1/C(=O)OCC1O (centres undefined)	> 100 µM	> 100 µM	4.22 µM	> 100 µM	8.12 µM	> 100 µM	7.75 µM	> 100 µM	> 100 µM	> 100 µM	26.3 µM	> 100 µM	2.93 µM	> 100 µM	5.13 µM	> 100 µM
CCOC(=O)c1sc(-c2ccc(OS(=O)(=O)c3cccs3)c(C=O)c2)nc1C	–	–	2.01 µM	3.9 µM	2.06 µM	4.78 µM	–	–	2.01 µM	4.07 µM	1.88 µM	4.93 µM	1.89 µM	4.93 µM	1.76 µM	4.54 µM
O=C(c1ccccc1)C1C(C(=O)c2ccccc2)N1Cc1ccccc1 (centres undefined)	–	> 100 µM	–	58.3 µM	–	51.5 µM	–	> 100 µM	–	> 100 µM	–	> 100 µM	–	–	–	> 100 µM
CCOC1OCCCC1Br (centres undefined)	–	> 100 µM	–	> 100 µM	–	> 100 µM	–	> 100 µM	–	> 100 µM	–	> 100 µM	–	–	–	> 100 µM
COc1ccc(/C=C/c2c(C(=O)/C=C/c3ccc(Cl)cc3)c(C)nc3ccccc23)cc1	2.12 µM	4.83 µM	2.13 µM	5.29 µM	1.83 µM	4.06 µM	1.57 µM	3.06 µM	1.81 µM	3.42 µM	1.8 µM	3.72 µM	2.15 µM	5.62 µM	1.39 µM	3.35 µM
COc1ccccc1/C=C\c1cnnc2ccccc12	–	> 10 µM	–	> 10 µM	–	> 10 µM	–	> 10 µM	–	> 10 µM	–	> 10 µM	–	> 10 µM	–	> 10 µM
S=c1nc(-c2ccccc2)oc(=NC2CCCCC2)n1C1CCCCC1	5.9 µM	23.1 µM	2.11 µM	4.22 µM	4.51 µM	17.8 µM	3.79 µM	13.7 µM	14.3 µM	30.2 µM	17.5 µM	37.9 µM	1.9 µM	5.29 µM	4.21 µM	19.6 µM
COc1ccc(N2CCN(C(=O)c3ccccc3Nc3ccnc(C(F)(F)F)c3)CC2)cc1	54.8 µM	> 100 µM	63 µM	> 100 µM	> 100 µM	> 100 µM	> 100 µM	> 100 µM	> 100 µM	> 100 µM	96.5 µM	> 100 µM	32.3 µM	> 100 µM	17.3 µM	> 100 µM
CC1(C)CCC[C@]23C(=O)O[C@](O)(C(=O)C4=C[C@@](C)(/C=C/CCCc5ccc6ccc7cccc8ccc5c6c78)CC[C@@]42O)[C@@H]13	0.215 µM	0.563 µM	0.183 µM	0.383 µM	0.217 µM	0.471 µM	0.176 µM	0.323 µM	0.144 µM	0.317 µM	0.166 µM	0.328 µM	0.248 µM	0.649 µM	0.178 µM	0.376 µM
COC(=O)c1c[nH]c(=O)[nH]c1=O	–	–	–	> 100 µM	–	> 100 µM	–	> 100 µM	–	> 100 µM	–	–	–	–	–	> 100 µM
O=c1[nH]cc(CS(=O)(=O)Cc2c[nH]c(=O)[nH]c2=O)c(=O)[nH]1	–	–	–	> 100 µM	–	> 100 µM	–	–	–	> 100 µM	–	> 100 µM	–	–	–	> 100 µM
CN(C)c1ccc(/C=C2\C[C@H]3[C@@H]4CC=C5C[C@@H](N6CCCC6)CC[C@]5(C)[C@H]4CC[C@]3(C)[C@H]2O)cc1	2.98 µM	7.14 µM and 12.9 µM	–	4.12 µM	2 µM	2.35 µM and 3.89 µM	–	1.86 µM	–	1.84 µM	14 µM	–	2.3 µM	2.31 µM and 4.86 µM	16.8 µM	9.93 µM and 58 µM
C=C(C=O)C1CC(=O)C(C(=O)OC)[C@@H]2O[C@@](C)(CC2=O)C[C@@H]2OC(=O)[C@]3(O[C@@H]23)[C@@H](C(=O)OC)C1 (some centres undefined)	25.6 µM	58.8 µM	17.2 µM	> 100 µM	15.6 µM	52.9 µM	14.4 µM	30.8 µM	20.2 µM	66.5 µM	24.9 µM	> 100 µM	20.1 µM	53.5 µM	18.3 µM	42.8 µM
NC(=O)CCC(NC(=O)OCc1ccccc1)C(=O)OCC(=O)c1ccccc1 (centres undefined)	> 100 µM	> 100 µM	> 100 µM	> 100 µM	> 100 µM	> 100 µM	65.6 µM	> 100 µM	43.9 µM	> 100 µM	> 100 µM	> 100 µM	> 100 µM	> 100 µM	> 100 µM	> 100 µM
O=NC1c2cccc3cccc(c23)C1N=O (centres undefined)	–	19.5 µM	–	17.2 µM	–	–	–	–	–	–	–	–	–	6.61 µM	–	32.3 µM
CN1/C(=C\C(I)C(I)C2=[N+](C)c3ccccc3C2(C)C)C(C)(C)c2ccccc21 (centres undefined)	0.383 µM	13.8 µM	0.21 µM	0.733 µM	0.39 µM	2.75 µM	0.371 µM	16.9 µM	0.522 µM	19.8 µM	0.2 µM	24.2 µM	0.178 µM	0.651 µM	0.114 µM	9.33 µM
Cl.[Pt].[c-]1ccccc1-c1ccccn1.c1ccc(P(c2ccccc2)C([PH+](c2ccccc2)c2ccccc2)[PH+](c2ccccc2)c2ccccc2)cc1	2.39 µM	9 µM	–	–	2.09 µM	5.92 µM	3.64 µM	18.6 µM	2.64 µM	9.7 µM	1.88 µM	9.81 µM	1.1 µM	5.32 µM	1.19 µM	18.4 µM
Oc1ccc2oc3ncc(Cl)c(-c4ccccc4)c3c2c1	–	–	> 100 µM	> 100 µM	> 100 µM	> 100 µM	–	–	> 100 µM	> 100 µM	> 100 µM	> 100 µM	> 100 µM	> 100 µM	> 100 µM	> 100 µM
